Experimental findings from BindingDB's records for doi:10.1111/j.1747-0285.2009.00884.x (Pfizer, 2009) are described below.

What is called IC50 is the concentration that gives 50% inhibition. A high value points to a need for much substance.

Several values for one entry are separate records, joined by “and”; a condition that tells them apart may be missing. Identical values can stand only once.

Assay [1] has as its target T1, Mitogen-activated protein kinase 14 (Homo sapiens, UniProt Q16539). Put plainly: Active p38alpha cascade assay. To be noted: pH 7.5; 25 °C. The method, then: The reaction was run for 15 min atroom temperature. […] Under such
In assay [2] the target is T1, Mitogen-activated protein kinase 14. Briefly: Unactivated p38alpha cascade assay. To be noted: pH 7.5; 25 °C. The method, then:
Binding of inhibitors to unactivated p38a that leads to decreasedphosphorylation of p38alpha by MKK6 was determined by measuringthe activated p38alpha activity in the assay mixture with andwithout inhibitors. In a 20-lL reaction mixture containing 50 mMHepes, pH 7.5, 1 mM EGTA, 10 mM MgCl2, 0.01% (w / v) Brij35 and 200 µM DTT, unactivated p38a (2 nM) was preincubatedwith inhibitors at various concentrations for 30 min at roomtemperature. Ten microliters of 1 mM ATP and 1 nM active MKK6were then introduced to initiate p38a activation. The reaction wasrun at room temperature for 15 min. The mixture was thenimmediately diluted 100-fold so that the inhibitor concentrationwas reduced by 2 orders of magnitude and residual inhibitoryeffect was minimized. The reaction product, active p38alpha, wasthen calculated based on its catalytic activity to activate MK2 asdescribed in Active p38a cascade assay section.

T1 sequence (Q16539 whole entry): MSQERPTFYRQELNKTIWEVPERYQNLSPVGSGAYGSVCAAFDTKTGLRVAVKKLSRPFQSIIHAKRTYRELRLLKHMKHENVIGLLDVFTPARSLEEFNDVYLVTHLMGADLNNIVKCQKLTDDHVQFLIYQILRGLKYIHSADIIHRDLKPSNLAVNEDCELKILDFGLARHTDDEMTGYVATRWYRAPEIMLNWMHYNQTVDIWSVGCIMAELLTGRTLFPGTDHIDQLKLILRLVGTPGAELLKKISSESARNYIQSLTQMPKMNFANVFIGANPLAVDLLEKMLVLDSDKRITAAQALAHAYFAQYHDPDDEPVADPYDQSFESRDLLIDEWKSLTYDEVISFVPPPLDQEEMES

On to `CC(=O)c1cc(C(=O)NCc2ccc(-n3nc(C(C)(C)C)cc3NC(=O)Nc3cccc4ccccc34)cc2)ccc1C` [(5a) BIRB796], for which the IC50 came out at 933 nM in assay [1] and 8 nM in assay [2].

As to `CC(=O)c1cc(C(=O)NC(O)(NCc2ccc(-n3nc(C(C)(C)C)cc3NC(=O)Nc3cccc4ccccc34)cc2)C2CCCC2)ccc1C` (stereo not given) [(5b) BIRB796], the results for the IC50 in assay [1] and in assay [2] were 1110 nM and 26 nM, respectively.

Consider `Cc1ccc(C(=O)NCc2ccc(-n3nc(C(C)(C)C)cc3NC(=O)Nc3cccc4ccccc34)cc2)cc1C(=O)O` [(7a) BIRB796], for which the figures for the IC50 in assay [1] and in assay [2] were 691 nM and 11 nM, respectively.

Turning to `Cc1ccc(C(=O)NC(O)(NCc2ccc(-n3nc(C(C)(C)C)cc3NC(=O)Nc3cccc4ccccc34)cc2)C2CCCC2)cc1C(=O)O` (stereo not given) [(7b) BIRB796], the values for the IC50 in assay [1] and in assay [2] were 1130 nM and 36 nM, respectively.

Consider `Cc1cc(C(=O)NCc2ccc(-n3nc(C(C)(C)C)cc3NC(=O)Nc3cccc4ccccc34)cc2)ccc1C(=O)O` [(8a) BIRB796], for which the concentration for half-maximal inhibition (IC50) in assay [1] is 393 nM and 664 nM; in assay [2], 11 nM and 25 nM.

As to `Cc1ccc(C(=O)NC(C)(O)NCc2ccc(-n3nc(C(C)(C)C)cc3NC(=O)Nc3ccccc3)cc2)cc1C(=O)O` (stereo not given) [(9a) BIRB796], the IC50 in assay [1] stood at 376 nM; in assay [2] it was 6 nM.

On to `Cc1ccc(C(=O)NC(O)(NC(=O)NCc2ccc(-n3nc(C(C)(C)C)cc3NC(=O)Nc3ccccc3)cc2)C2CCCC2)cc1C(=O)O` (stereo not given) [(9b) BIRB796], for which the IC50 is 810 nM in assay [1] and 22 nM in assay [2].

Take `Cc1cc(C(=O)NC(C)(O)NCc2ccc(-n3nc(C(C)(C)C)cc3NC(=O)Nc3ccccc3)cc2)ccc1C(=O)O` (stereo not given) [(10a) BIRB796]: the IC50 in assay [1] was 261 nM; in assay [2], 7 nM.

As for `Cc1ccc(C(=O)NC(=O)NCc2ccc(-n3nc(C(C)(C)C)cc3NC(=O)Nc3ccccc3)cc2)cc1C(=O)O` [(11a) BIRB796], the half-maximal inhibitory concentration (IC50) in assay [1] is 1080 nM; in assay [2], 11 nM.

Take `Cc1ccc(C(=O)[n+]2cccc(C(=O)NCc3ccc(-n4nc(C(C)(C)C)cc4NC(=O)Nc4ccccc4)cc3)c2)cc1C(=O)O` [(11b) BIRB796]: the IC50 was determined as 1220 nM in assay [1] and 35 nM in assay [2].

Take `Cc1cc(C(=O)NC(=O)NCc2ccc(-n3nc(C(C)(C)C)cc3NC(=O)Nc3ccccc3)cc2)ccc1C(=O)O` [(12a) BIRB796]: the IC50 is 1590 nM in assay [1] and 53 nM in assay [2].

Take `Cc1cc(C(=O)[n+]2cccc(C(=O)NCc3ccc(-n4nc(C(C)(C)C)cc4NC(=O)Nc4ccccc4)cc3)c2)ccc1C(=O)O` [(12b) BIRB796]: the values for the IC50 in assay [1] and in assay [2] were 1470 nM and 62 nM, respectively.

Turning to `O=S1(=O)N=c2ccc3c4c(c5ccccc5c(c24)O1)OS(=O)(=O)N=3` [CP-232880], the IC50 in assay [1] was determined as 2100 nM; in assay [2] it was 1030 nM.

Take `Clc1ccc(-c2c[nH]c(-c3cc4ccccc4cn3)n2)cc1` [PF-00215924]: the IC50 is 1.8 nM in assay [1] and 110 nM in assay [2].

As to `Brc1ccc(-c2c[nH]c(-c3cc4ccccc4cn3)n2)cc1` [PF-00215937], the IC50 in assay [1] is 1900 nM and > 12500 nM.

Turning to `Clc1cccc(-c2c[nH]c(-c3cc4ccccc4cn3)n2)c1` [PF-00240292], the IC50 in assay [1] was greater than 12500 nM; in assay [2], 2300 nM.

In the case of `Brc1ccc(-c2c[nH]c(-c3cc4ccccc4cn3)n2)cc1` [PF-04764755], the IC50 in assay [1] was 2950 nM; in assay [2], 320 nM.

Take `NCCC(=O)c1cccc(Oc2cccc(C(=O)CCN)c2)c1` [UK-146015]: the IC50 in assay [1] is greater than 12500 nM; in assay [2], 6000 nM.
